According to ChEMBL document CHEMBL1152986, “The macrolide resistance genes erm(B) and mef(E) are carried by Tn2010 in dual-gene Streptococcus pneumoniae isolates belonging to clonal complex CC271” (2007):
≈ marks a conversion by molar mass, not a printed value.

System: Streptococcus pneumoniae
Experiment: Antibacterial activity against tetracycline-susceptible Streptococcus pneumoniae GMRS06 harboring one-nucleotide insertion stop codon in […] gene
Assay type: functional

Q: For CN(C)[C@@H]1C(O)=C(C(N)=O)C(=O)[C@@]2(O)C(O)=C3C(=O)c4c(O)cccc4[C@@](C)(O)[C@H]3C[C@@H]12 [TETRACYCLINE], which MIC is on record?
A: 0.25 µg/mL (≈ 0.563 µM)
